In article PMC5835287, “Synthesis, Characterization, and BSA-Binding Studies of Novel Sulfonated Zinc-Triazine Complexes” (Bioinorganic Chemistry and Applications, 2018):
Structures can show the parent of a compound that is named as a salt.

Molecular target: T1, bovine serum albumin (BSA) (Bos taurus, UniProt P02769)
T1 construct: gene ALB
Assay: UV absorbance titration at […] nm (binding constant Kb from […]/(A-A0) vs […]/[C] plot)
Conditions: read-out: UV absorbance titration at 280 nm (binding constant Kb from 1/(A-A0) vs 1/[C] pl) (converted)

T1 sequence (P02769 25-607): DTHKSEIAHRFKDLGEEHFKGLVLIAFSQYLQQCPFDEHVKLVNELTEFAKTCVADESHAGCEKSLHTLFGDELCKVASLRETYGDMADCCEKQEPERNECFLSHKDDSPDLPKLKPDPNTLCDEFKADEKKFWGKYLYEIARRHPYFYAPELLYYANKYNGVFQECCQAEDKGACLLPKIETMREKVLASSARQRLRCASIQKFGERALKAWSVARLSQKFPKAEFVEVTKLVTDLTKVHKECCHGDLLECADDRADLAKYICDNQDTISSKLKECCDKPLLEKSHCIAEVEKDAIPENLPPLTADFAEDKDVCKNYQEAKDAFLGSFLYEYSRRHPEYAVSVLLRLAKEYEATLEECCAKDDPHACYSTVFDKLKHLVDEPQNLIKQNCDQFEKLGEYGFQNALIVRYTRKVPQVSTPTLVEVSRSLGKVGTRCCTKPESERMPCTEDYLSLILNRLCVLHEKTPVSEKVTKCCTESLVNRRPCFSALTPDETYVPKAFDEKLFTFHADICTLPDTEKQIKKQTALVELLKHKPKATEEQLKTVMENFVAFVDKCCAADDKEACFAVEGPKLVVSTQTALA

O=S(=O)(O)c1ccc(-c2nnc(-c3ccccn3)nc2-c2ccc(S(=O)(=O)O)o2)o1 [L1, 3-(2-pyridyl)-5,6-di(2-furyl)-1,2,4-triazine-5′,5″-disulfonic acid disodium salt]
Kd: 32.4 µM
